Measured values taken from PMC12153338, “Resistance to oxyimino-cephalosporins conferred by an alternative mechanism of hydrolysis by the Acinetobacter-derived cephalosporinase-33 (ADC-33), a class C β-lactamase present in carbapenem-resistant Acinetobacter baumannii (CRAb)” (mBio, 2025).
≈ marks a conversion by molar mass, not a printed value.

Tests used:
[1] = tested on: DH10B Escherichia coli pBCSK− no insert; experiment: MIC by broth microdilution, DH10B E. coli with pBCSK− no insert; type: cell-based; conditions: DH10B E. coli with pBCSK− no insert (control strain), FDC in iron-depleted cation-adjusted MH broth
Protocol: (§1) Susceptibility testing to standard antibiotics was performed by broth microdilution according to 2024 Clinical and Laboratory Standards Institute (CLSI) guidelines ([38]). MICs for FDC were done in iron-depleted cation-adjusted Mueller-Hinton (MH) broth according to CLSI methods. All MICs were interpreted according to the 2024 CLSI guidelines ([38]). MICs are done in triplicate, and the mode MIC value is reported.
(§2) blaADC-7 pBCSK− was cloned and expressed in E. coli DH10B cells as previously described for MIC determinations ([3]). The pBCSK-non-inducible phagemid vector has a chloramphenicol resistance gene used to aid selection. All other blaADC variants were synthesized by GenScript according to the blaADC-7 pBCSK− strategy, cloning into the XbaI/BamHI sites of the pBCSK− vector ([5]).

[2] = tested on: DH10B alone; experiment: MIC by broth microdilution, DH10B alone; type: cell-based; conditions: Escherichia coli; DH10B alone (control strain); FDC in iron-depleted cation-adjusted MH broth
Protocol: as §1, §2

[3] = tested on: ADC-33 in DH10B Escherichia coli; experiment: MIC by broth microdilution, ADC-33 in DH10B E. coli; type: cell-based; conditions: DH10B E. coli expressing ADC-33 (Adup) from pBCSK−, FDC in iron-depleted cation-adjusted MH broth, mode of triplicate
Protocol: as §1, §2

[4] = tested on: ADC-217 in DH10B Escherichia coli; experiment: MIC by broth microdilution, ADC-217 in DH10B E. coli; type: cell-based; conditions: DH10B E. coli expressing ADC-217 (non-Adup) from pBCSK−, FDC in iron-depleted cation-adjusted MH broth, mode of triplicate
Protocol: as §1, §2

[5] = tested on: ADC-219 in DH10B Escherichia coli; experiment: MIC by broth microdilution, ADC-219 in DH10B E. coli; type: cell-based; conditions: DH10B E. coli expressing ADC-219 (Adup) from pBCSK−, FDC in iron-depleted cation-adjusted MH broth, mode of triplicate
Protocol: as §1, §2

[6] = tested on: ADC-218 in DH10B Escherichia coli; experiment: MIC by broth microdilution, ADC-218 in DH10B E. coli; type: cell-based; conditions: DH10B E. coli expressing ADC-218 (Adup) from pBCSK−, FDC in iron-depleted cation-adjusted MH broth, mode of triplicate
Protocol: as §1, §2

[7] = tested on: ADC-172 in DH10B Escherichia coli; experiment: MIC by broth microdilution, ADC-172 in DH10B E. coli; type: cell-based; conditions: for MIC: Escherichia coli, DH10B E. coli expressing ADC-172 (Adup) from pBCSK−, FDC in iron-depleted cation-adjusted MH broth, mode of triplicate, read-out: MIC
Protocol: as §1, §2

[8] = tested on: ADC variants in DH10B Escherichia coli; experiment: MIC, statements across ADC variants in E. coli; type: cell-based
Protocol: as §1, §2

[9] = tested on: ADC-73 in DH10B Escherichia coli; experiment: MIC by broth microdilution, ADC-73 in DH10B E. coli; type: cell-based; conditions: DH10B E. coli expressing ADC-73 (non-Adup) from pBCSK−, FDC in iron-depleted cation-adjusted MH broth, mode of triplicate
Protocol: as §1, §2

[10] = tested on: ADC-143 in DH10B Escherichia coli; experiment: MIC by broth microdilution, ADC-143 in DH10B E. coli; type: cell-based; conditions: DH10B E. coli expressing ADC-143 (non-Adup) from pBCSK−, FDC in iron-depleted cation-adjusted MH broth, mode of triplicate
Protocol: as §1, §2

[11] = tested on: ADC-7 in DH10B Escherichia coli; experiment: MIC by broth microdilution, ADC-7 in DH10B E. coli; type: cell-based; conditions: DH10B E. coli expressing ADC-7 (non-Adup) from pBCSK−, FDC in iron-depleted cation-adjusted MH broth, mode of triplicate
Protocol: as §1, §2

[12] = tested on: ADC-30 in DH10B Escherichia coli; experiment: MIC by broth microdilution, ADC-30 in DH10B E. coli; type: cell-based; conditions: DH10B E. coli expressing ADC-30 (non-Adup) from pBCSK−, FDC in iron-depleted cation-adjusted MH broth, mode of triplicate
Protocol: as §1, §2

[13] = target: ADC-217 (Acinetobacter baumannii, UniProt Q6DRA1, V286E, form not given); experiment: Steady-state hydrolysis kinetics, ADC-217; type: biochemical; conditions: hydrolysis by ADC-217
Protocol: Steady-state kinetic parameters were determined by combining pure enzyme with antibiotic substrates in 50 mM NaH2PO4, pH 7.4, at room temperature. Changes in absorbance were measured on the Cary 60 UV−Vis spectrophotometer (Agilent Technologies) and converted to velocity using the change in extinction coefficient specific to nitrocefin (NCF) (ε482 = 17,400 M^−1·cm^−1), CAZ (ε260 8,660 M^−1·cm^−1), and cefiderocol (ε259 9,430 M^−1·cm^−1). The concentration of enzyme ranged from 0.1 to 1.0 µM, and all kinetic experiments were performed at least in triplicate. Initial velocities were fitted to the Michaelis-Menten equation, yielding kcat and KM values. The standard error for kcat/KM values was generated by factoring in the larger of the proportional standard errors for the individual kcat value and the KM value. For ADC/substrate combinations in which the KM was too large to accurately determine both kcat and KM values, the initial velocities at kcat/KM values were calculated from linear fits of vo in low [S] ranges (<0.08 * KM).

Cn1c(N)c(NC(=O)NCCN)c[n+]1CC1=C(C(=O)O)N2C(=O)[C@@H](NC(=O)/C(=N\OC(C)(C)C(=O)[O-])c3nsc(N)n3)[C@H]2SC1 [TOL, ceftolozane]
MIC [1]: 0.5 µg/mL (≈ 0.75 µM)
MIC [2]: 0.5 µg/mL (≈ 0.75 µM)
MIC [3]: 512 µg/mL (≈ 768 µM)
MIC [4]: 16 µg/mL (≈ 24 µM)
MIC [5]: 128 µg/mL (≈ 192 µM)
MIC [6]: 512 µg/mL (≈ 768 µM)
MIC [7]: 512 µg/mL (≈ 768 µM)
MIC [8]: ≥ 512 µg/mL
MIC [9]: 2 µg/mL (≈ 3 µM)
MIC [10]: 16 µg/mL (≈ 24 µM)
MIC [11]: 8 µg/mL (≈ 12 µM)
MIC [12]: 4 µg/mL (≈ 6 µM)

CO/N=C(\C(=O)N[C@@H]1C(=O)N2C(C(=O)[O-])=C(C[N+]3(C)CCCC3)CS[C@H]12)c1csc(N)n1 [FEP, cefepime]
MIC [1]: 0.03 µg/mL (≈ 0.0624 µM)
MIC [2]: 0.06 µg/mL (≈ 0.125 µM)
MIC [3]: 1 µg/mL (≈ 2.08 µM)
Km [13]: 155 µM
kcat [13]: 30.2 s⁻¹
MIC [4]: 16 µg/mL (≈ 33.3 µM)
MIC [5]: 0.125 µg/mL (≈ 0.26 µM)
MIC [6]: 4 µg/mL (≈ 8.32 µM)
fold increase in MIC from ADC-30 to ADC-172 ([7]; DH10B E. coli, ADC-172 versus ADC-30): ≤ 16 fold
MIC [7]: 8 µg/mL (≈ 16.6 µM)
MIC [9]: 0.25 µg/mL (≈ 0.52 µM)
MIC [10]: 0.25 µg/mL (≈ 0.52 µM)
MIC [11]: 0.5 µg/mL (≈ 1.04 µM)
MIC [12]: 0.5 µg/mL (≈ 1.04 µM)
